Test results reported in patent publication US4122202A, “Amino-3H-isobenzofuranones N-substitutes and their therapeutic application” (Societe Cortial, priority 1975, dated 1978).
Where two headings read alike, the source gives them in different places.

Columns and labels:
[1] = system: rats; test: Anti-inflammatory activity: carragenic test (carragenine-induced edema of the hind leg); type: in vivo, male rats; settings: Rattus norvegicus, oral, read-out: ED 50
Protocol: All products were administered in gummy julep except No. 1 and No. 13 which were administered in suspension in Tween. The anti-inflammatory activity was determined by the carragenic test with male rats. Inflammation was induced by the injection of 0.1 ml of a 0.5% suspension of carragenine in a physiological serum into the muscular fasciculus of the metatarsal region of the hind leg of the animal. The substance to be tested was orally administered simultaneously with the carragenine. The edema was measured by phethysmography 1, 2, 3, 4, 5 and 6 hours after the administration of the carragenine.
**50 mg/kg No. 13 which were administered in suspension in Tween.

[2] = Oral toxicity in mice (LDO, LD50); type: in vivo; settings: mouse, in vivo, gummy julep (No. 1 and 13 in Tween), 2 weeks observation
Protocol: This toxicity is estimated by the calculation of the lethal dose of 50 (LD 50) which determines the fatal dose of the substance for 50% of the animals tested. This determination was effected in accordance with a modification of the method by Litchfield and Wilcoxon (J. Pharmacol. Exp. Therap. 1949, 96, 99-113).
Swiss mice without specific pathogenic organisms were kept in air conditioned rooms 24 to 48 hours before the start of the tests. They were divided into batches of 5.male. and 5.female.. With the animals unfed for 24 hours, the substances were intragastically administered in suspension in 2% Tween 80 or in 6% gummy julep in a volume equivalent to 0.1 ml per 10 g of the weight of the animal.
They remained under observation for two weeks before being killed and subjected to an autopsy.
(§1) All products were administered in gummy julep except No. 1 and No. 13 which were administered in Tween. The analgesic activity were determined in mice by utilizing as a nociceptive agent, phenylbenzoquinone (PBQ) (modification of the method by Siegmund and co-workers Proc. Soc. Exp. Biol. Med. 1957, 95, 729-31). The process consists of seeking a possible protection for the mouse vis-a-vis abdominal twisting and stretching of the hind legs induced by the parental injection of PBQ. 25 minutes after having orally administered the products to be tested in suspension in 2% Tween 80 or in 6% gummy julep, the PBQ solution was injected and the mice were observed after 5 minutes during the following 5 minutes. For certain products, AD 50 is presented as a measure of activity.

[3] = system: rats; test: Ulcerous activity (modified method of Colot); type: in vivo, female EOPS rats; settings: 83 mg/kg oral daily
Protocol: Ulcerous activity was determined according to a modification of the method by Colot (Technical notions of general pharmacology, 1972) in the case of femal EOPS rats of approximately 150 g. The animals were left without absolutely any food, while the test products were orally administered on a daily basis in suspension in 2% Tween at a volume of 0.5 ml/100 g. The animals were killed under chloroform and the stomachs were removed. Ulcerous activity was established by means of an index taking into account the degree of ulceration and the percentage of animals effected.
In the table given below, a comparison is shown between the results obtained with niflumic acid and product No. 1.

[4] = system: mice; test: Analgesic activity: protection against abdominal twisting induced by phenylbenzoquinone (PBQ); type: in vivo; settings: Mus musculus, oral, read-out: AD 50 (the source's name)
Protocol: as §1, with “activity. […]” for “activity.”

## O=C(O)c1cccnc1Nc1cccc(C(F)(F)F)c1 [Niflumic acid]
[1]; 2H
  ED50: 34 mg/kg
[1]; 4H
  ED50: 125 mg/kg
[2]
  LD50 at 336 h: ~350 mg/kg
[3]; 1 day
  IA: Acute ulceration index: 8
  IC: Ulceration index on the way of cicatrization: 380
  IT: Total index: 388
[3]; 3 days
  IA: Acute ulceration index: 16
  IC: Ulceration index on the way of cicatrization: 206
  IT: Total index: 222
[4]
  ED50: 17 mg/kg
